Results reported in patent US5153207A, “Piperidine derivative, method for preparation thereof, and a pharmaceutical composition comprising the same” (Hokuriku Pharmaceutical Co., Ltd., priority 1989, dated 1992).
Where a name gives a salt, the structure may show the parent alone.

Key:
[1] = tested on: passive cutaneous anaphylaxis (PCA) in rats; test: 48 hr homologous passive cutaneous anaphylaxis (PCA) in rats; assay type: in vivo, male Wistar rats; settings: 1 hr prior to challenge with antigen; for inhibition in vivo at 1 mg/kg: Rattus norvegicus, po, read-out: the percent inhibition of PCA in rats
Experimental: The following compounds were used as the reference compounds. 1.48 hr homologous passive cutaneous anaphylaxis (PCA) in rats a) Preparation of DNP-As and rat anti-DNP-As serum Ascaris extract coupled with 2,4-dinitrophenyl group (DNP-As) was prepared by the method of Koda et al. (Folia pharmacol. japon., 78, 319-334, 1981) and anti-DNP-As containing IgE antibody serum was prepared by the method of Tada and Okumura (J. Immunol., 106, 1019-1025, 1971). […] b) 48 hr homologous passive cutaneous anaphylaxis (PCA) in rats Male Wistar rats weighing 160 to 220 g were sensitized passively by intradermal injection in the back, of 0.05 ml of anti-DNP-As serum, diluted 21-fold with saline. […] After additional thirty minutes, the animals were killed by stunning and the skins were removed. The intensity of the response was evaluated by assaying the amount of dye leaked according to the method of Katayama et al. (Microbiol. Immunol., 22, 89-101, 1978). […] Test compounds were given orally in a dose 1.0 mg/kg 1 hr prior to challenge with antigen. As a control, 5 ml/kg of vehicle (0.5% CMC) alone were given in a similar manner.

[2] = tested on: hexobarbital-induced anesthesia in mice; set-up: species or system male ddY mice; settings: mouse, in vivo
From the text: The results of 48 hr homologous passive cutaneous anaphylaxis (PCA) in rats with the monitoring of antiallergic activity and potentiation of hexobarbital-induced anesthesia in mice with the monitoring of central nervous depressive activity are summarized in Table 1. The following compounds were used as the reference compounds.
2. Potentiation of hexobarbital-induced anesthesia in mice
The loss of righting reflex induced by hexobarbital was used as an index of anesthesia. Groups of eight male ddY mice (20-24 hr fasted) weighing 19 to 27 g were treated orally with the test compounds (30 mg/kg) or vehicle. Thirty minutes later, 80 mg/kg of hexobarbital sodium were injected i.p. to the animals and the duration of loss of righting reflex was observed. The percent increase of sleeping time was calculated using the following formula: [formula]

Row | SMILES | inhibition in vivo at 1 mg/kg [1] | the percent increase of hexobarbital-induced anesthesia in mice [2] | the percent inhibition of PCA in rats ([1]; 1 mg/kg, p.o., hydrochloride)
1 | Cl.O=C(O)CCCN1CCC(OC(c2ccccc2)c2ccc(F)cc2)CC1 (racemic) [Example 115, (±)-4-[(4-Fluorophenyl)phenylmethoxy]-1-piperidinebutyric acid hydrochloride] | 73% | 21% | –
2 | Cl.O=C(O)CCCCN1CCC(OC(c2ccccc2)c2ccc(F)cc2)CC1 (racemic) [Example 116, (±)-4-[(4-Fluorophenyl)phenylmethoxy]-1-piperidinevaleric acid hydrochloride] | 83% | 31% | –
3 | Cc1ccc(C(OC2CCN(CCCCCC(=O)O)CC2)c2ccccc2)cc1.Cl (single isomer, unassigned; (-)) [Example 126, (-)-4-[(4-Methylphenyl)phenylmethoxy]-1-piperidinecaproic acid hydrochloride] | – | -1% | 36%
4 | Cc1ccc(C(OC2CCN(CCCCCC(=O)O)CC2)c2ccccc2)cc1.Cl (single isomer, unassigned; (+)) [Example 125, (+)-4-[(4-Methylphenyl)phenylmethoxy]-1-piperidinecaproic acid hydrochloride] | 55% | 29% | –
5 | COc1ccc(C(OC2CCN(CCCC(=O)O)CC2)c2ccccc2)cc1.Cl (racemic) [Example 87, (±)-4-[(4-Methoxyphenyl)phenylmethoxy]-1-piperidinebutyric acid hydrochloride] | 54% | 18% | –
6 | Cl.O=C(O)CCN1CCC(OC(c2ccccc2)c2ccccc2)CC1 [Example 65, 4-(Diphenylmethoxy)-1-piperidinepropionic acid hydrochloride] | 62% | 29% | –
7 | COC(=O)CCCCCN1CCC(OC(c2ccccc2)c2ccc(C)cc2)CC1.Cl (racemic) [Example 1, (±)-Methyl 4-[(4-methylphenyl)phenylmethoxy]-1-piperidinecaproate hydrochloride] | 77% | 16% | –
8 | Cc1ccc(C(OC2CCN(CCCCCCC(=O)O)CC2)c2ccccc2)cc1.Cl (racemic) [Example 73, (±)-4-[(4-Methylphenyl)phenylmethoxy]-1-piperidineheptanoic acid hydrochloride] | 67% | 2% | –
9 | Cc1ccc(C(OC2CCN(CCCCCCCC(=O)O)CC2)c2ccccc2)cc1.Cl (racemic) [Example 74, (±)-4-[(4-Methylphenyl)phenylmethoxy]-1-piperidineoctanoic acid hydrochloride] | 59% | 21% | –
10 | COC(=O)CCCCCN1CCC(OC(c2ccccc2)c2ccc(C)cc2)CC1.Cl (single isomer, unassigned; (+)) [Example 62, (+)-Methyl 4-[(4-methylphenyl)phenylmethoxy]-1-piperidinecaproate hydrochloride] | 56% | 29% | –
11 | CCc1ccc(C(OC2CCN(CCCCCC(=O)O)CC2)c2ccccc2)cc1.Cl (racemic) [Example 77, (±)-4-[(4-Ethylphenyl)phenylmethoxy]-1-piperidinecaproic acid hydrochloride] | 68% | 24% | –
12 | Cc1ccc(C(OC2CCN(CCC(=O)O)CC2)c2ccccc2)cc1.Cl (racemic) [Example 70, (±)-4-[(4-Methylphenyl)phenylmethoxy]-1-piperidinepropionic acid hydrochloride] | 51% | -2% | –
13 | Cc1ccc(C(OC2CCN(CCCCC(=O)O)CC2)c2ccccc2)cc1.Cl (racemic) [Example 72, (±)-4-[(4-Methylphenyl)phenylmethoxy]-1-piperidinevaleric acid hydrochloride] | 63% | 12% | –
14 | CCOC(=O)Oc1ccc(C=CC=CC(=O)NCCN2CCC(OC(c3ccccc3)c3ccccc3)CC2)cc1OC [Reference compound B, N-[2-[4-(diphenylmethoxy)piperidino]ethyl]-5-[4-(ethoxycarbonyloxy)-3-methoxyphenyl]-2,4-pentadienoylamide, reference compound] | 8% | 35% | –
15 | COc1ccc(C(OC2CCN(CCC(=O)O)CC2)c2ccccc2)cc1.Cl (racemic) [Example 86, (±)-4-[(4-Methoxyphenyl)phenylmethoxy]-1-piperidinepropionic acid hydrochloride] | 60% | 4% | –
16 | Cl.O=C(O)CCCCN1CCC(OC(c2ccc(F)cc2)c2ccc(F)cc2)CC1 [Example 120, 4-[Bis(4-fluorophenyl)methoxy]-1-piperidinevaleric acid hydrochloride] | 64% | -12% | –
17 | Cc1ccc(C(OC2CCN(CCCCCC(=O)O)CC2)c2ccccc2)cc1.Cl (racemic) [Example 64, (±)-4-[(4-Methylphenyl)phenylmethoxy]-1-piperidinecaproic acid hydrochloride] | 68% | -8% | –
18 | CN1CCC(OC(c2ccccc2)c2ccccc2)CC1 [Reference compound A, diphenylpyraline hydrochloride, reference compound] | -1% | 75% | –
19 | COc1ccc(C(OC2CCN(CCCCCC(=O)O)CC2)c2ccccc2)cc1.Cl (racemic) [Example 89, (±)-4-[(4-Methoxyphenyl)phenylmethoxy]-1-piperidinecaproic acid hydrochloride] | 71% | 20% | –
20 | Cl.O=C(O)CCCN1CCC(OC(c2ccccc2)c2ccccc2Cl)CC1 (racemic) [Example 112, (±)-4-[(2-Chlorophenyl)phenylmethoxy]-1-piperidinebutyric acid hydrochloride] | 53% | 29% | –
21 | Cc1ccc(C(OC2CCN(CCCC(=O)O)CC2)c2ccccc2)cc1.Cl (racemic) [Example 71, (±)-4-[(4-Methylphenyl)phenylmethoxy]-1-piperidinebutyric acid hydrochloride] | 65% | 3% | –
